Data set [1] has as its system C6 cells. Nature of the data set: In vitro tumor inhibition: anchorage-dependent C6 cell growth assay (sulforhodamine B). The class given is cell-based. As to conditions: for IC50: Rattus norvegicus, C6 cells, 2000 cells/well, 4 days, 37° C., SRB stain. Here is the method: The assay measures protein content of acid-fixed cells using the counterion binding dye sulforhodamine B (SRB, Sigma).
AA10 and AA12 were solubilized in DMSO (Sigma, cell culture grade), and AA14 was dissolved in PBS (pH 7.4), the compounds were diluted into appropriate growth medium at two-fold the desired final assay concentration.
Compound (100 μL) was added to 96-well plates containing attached cellular monolayers C6 cells (2000 cells/well in 100 μL). After 4 days (37° C., 5% CO2) the monolayers were washed 3 times with PBS and fixed with 200 μL ice-cold 10% trichloroacetic acid (TCA) (Fisher Scientific), and kept at 4° C. for 60 minutes. The TCA was removed and the fixed monolayers were washed 5 times with tap water and allowed to dry completely at room temperature on absorbent paper. The cellular protein was stained for 10 min with 100 μL 0.4% SRB dissolved in 1% acetic acid. After 5 washes with tap water, the dye was solubilized in 10 mM Tris base (100 μL per well) and absorbance read at 570 nm on a Dynatech plate reader model MR5000. Growth inhibition data are expressed as aL percentage of absorbance detected in control wells which were treated with 0.4% DMSO or PBS alone. […] IC50 values were determined using a four parameter curve fit function.
(In general: Sulforhodamine B stains cellular protein and so reports cell mass.)

For data set [2], the system named is C6 glioma cells. Nature of the data set: In vivo tumor inhibition: subcutaneous Xenograft model with C6 glioma cells in mice. More on the design: species or system mice (BALB/c, nu/nu). To be noted: for Inhibition of tumor growth (FIGS. 1, 2, and 3): IP injection, 15 mg/kg/day, AA10 and AA12 in DMSO, AA14 in PBS. Here is the method:
In vivo tumor inhibition was measured using a subcutaneous Xenograft model.
C6 cells were maintained in Ham's F10 supplemented with 10% fetal bovine serum (FBS) and 2 mM glutamine (GLN). Cells were harvested at or near confluence with 0.05% Trypsin-EDTA and pelleted at 450×g for 10 min. Pellets were resuspended in sterile PBS or media (without FBS) to a particular concentration and the cells were implanted into the hindflank of mice. Tumor growth was measured over 3 to 6 weeks using venier calipers. Tumor volumes were calculated as a product of length x width x height unless otherwise indicated. AA10 and AA12 were solubilized in 50-100 μL vehicle (DMSO) while AA14 was dissolved in PBS (pH 7.4). The compounds were delivered by IP injection at 15 mg/kg/day.
The compound was dissolved in phosphate buffered saline and the animals were treated with 30 mg/kg/day and 50 mg/kg/day.

A short description of data set [3]: Solubility of compounds. Type of data set: physicochemical.
Data set [4] concerns mice (BALB/c). The experiment in a line: Toxicity studies (LD50, LD10, organ damage) in mice. The class given is in vivo. Here is the method: (§1) Toxicity studies were carried out in animal models for AA10, AA12 and AA14. AA10 and AA12 were solubilized in DMSO and AA14 was dissolved in PBS (pH 7.4). The dosage resulting in a 50% mortality rate (LD50) and a 10% mortality rate (LD10) was determined as described below.
(§2) Five mice (BALB/c) were treated with different concentrations of compound. […] The LD50 was calculated from a plot of % mortality versus dose (log M) using a four parameter logistic equation.
(§3) At the end of the experiment an animal from each study administered with 100 mg/kg of compound was sacrificed and pathologically analyzed for organ damage.

Assay in data set [5]: as above
Type of data set: in vivo. To be noted: mouse, in vivo. Here is the method: as §1, §2, §3

A short description of data set [6]: Stability compared with leflunomide. The class given is physicochemical.
The test system of data set [7] is autoimmune animal diseases. To be noted: Bartlett R. R. et al., Agents and Actions 32:10-21 (1991); cited from earlier work.
The mark [8] stands for this setting: organic solvent or mixture, in DMSO, read-out: Solubility in DMSO.
[9] abbreviates: mice (BALB/c), observed 7 to 14 days after last dose, AA10 and AA12 in DMSO, AA14 in PBS.

Structures are written as SMILES. In brackets after ≈: the same amount, converted by molar mass. Structures can show the parent of a compound that is named as a salt. Where two headings read alike, the source gives them in different places.

For orientation: IC50 means the point on the concentration scale where inhibition reaches its midpoint. A low value points to greater potency. With `CC(O)=C(C#N)C(=S)Nc1ccc(Cl)c(Cl)c1` [Compound 37, 3-hydroxy-3-methyl-2-[(3,4-dichlorophenyl)-aminothiocarbonyl]acrylonitrile], inhibition in data set [1] (96 h) was half-maximal at 6.1 µM (IC50).
In data set [1] (C6, 96 h), `CC(O)=C(C#N)S(=O)(=O)Nc1ccc(C(F)(F)F)cc1` [AA18, 1-cyano-2-hydroxy-1-(4-trifluoromethylphenylaminosulfonyl)propene sodium salt] displayed an IC50 of 24 µM. In other words, the double-digit micromolar range.
For the molecule `CC(O)=C(C#N)C(=S)Nc1ccc(Cl)cc1Cl` [Compound 42, 3-hydroxy-3-methyl-2-[(2,4-dichlorophenyl)aminothiocarbonyl]acrylonitrile], the IC50 in data set [1] (96 h) stood at 53.3 µM.
The same measure, in the same setting: for `CC(O)=C(C#N)C(=S)Nc1cccc(C(F)(F)F)c1` [Compound 17, 3-hydroxy-3-methyl-2-[[3-(trifluoromethyl)phenyl]aminothiocarbonyl]acrylonitrile] the value was 15.2 µM; for `CC(O)=C(C#N)C(=S)Nc1ccc(F)cc1Br` [Compound 7, 3-hydroxy-3-methyl-2-[(2-bromo-4-fluorophenyl)aminothiocarbonyl]acrylonitrile], 36.7 µM.
For orientation: solubility means how much of the substance goes into solution per volume. As usually defined, the LD50 is the dose expected to kill half of the subjects tested. High values mean lower toxicity, low ones greater toxicity. As for `CC(O)=C(C#N)C(=S)Nc1ccc(C(F)(F)F)cc1.[Na]`, the “Tumor inhibition at higher AA14 concentrations (FIG. 4)” value in data set [2] (30 mg/kg/day and 50 mg/kg/day in phosphate buffered saline) is “increased tumor inhibition”. Besides, the “Inhibition of tumor growth (FIGS. 1, 2, and 3)” value (shortened to “Inhibition of tumor growth”) in data set [2] is “inhibit tumor growth”. The “Solubility in PBS (in words)” value in data set [3] (AA14 compared with leflunomide and its hydroxycrotonamide metabolite) is “soluble in PBS”. Besides, the solubility in data set [3] (aqueous buffer, in PBS (phosphate buffered saline at pH 7.4), read-out: Solubility in PBS) was 275 mg/mL. In addition, the LD10 in data set [4] (mouse, in vivo) stood at 120 mg/kg. In data set [5], this molecule came in with an LD50 of 145 mg/kg.
In turn, `CC(O)=C(C#N)S(=O)(=O)Nc1ccc(C(F)(F)F)cc1` [AA17, 1-Cyano-2-hydroxy-1-(4-trifluoromethylphenylaminosulfonyl)propene] returned an IC50 in data set [1] (96 h) of 30 µM.
Consider `Cc1oncc1C(=S)Nc1ccc(C(F)(F)F)cc1` [AA10, 5-Methyl-4-(4-trifluoromethylphenyl)aminothiocarbonylisoxazole], for which the “Inhibition of tumor growth” value in data set [2] is reported as “inhibit tumor growth”. For the same molecule, the “Solubility in ethanol compared with leflunomide” value in data set [3] (in ethanol) is “more soluble in ethanol”. The solubility in data set [3] (setting [8]) was not below 1000 mg/mL. For the same molecule, the “Stability compared with leflunomide” value in data set [6] is “appears to be more stable than leflunomide”. Moreover, in data set [1], the “Inhibition of hyper-proliferative cell growth (in words)” value is given as “able to inhibit hyper-proliferative cell growth”. In data set [1] (96 h), this molecule gave an IC50 of 2 µM. The same molecule showed an LD10 in data set [4] (setting [9]) of 77 mg/kg. Besides, the LD50 in data set [5] (setting [9]) was found to be 96 mg/kg.
In data set [1] (96 h), `N#CC(C(=S)Nc1ccc(C(F)(F)F)cc1)=C(O)C1CC1` [Compound 3, 3-cyclopropyl-3-hydroxy-2-[(4-trifluoromethylphenyl)aminothiocarbonyl]acrylonitrile] yielded an IC50 of less than 1 µM.
The same measure, in the same setting: the figure for `CC(O)=C(C#N)C(=S)Nc1cccc(Cl)c1Cl` [Compound 32, 3-hydroxy-3-methyl-2-[(2,3-dichlorophenyl)aminothiocarbonyl]acrylonitrile] is 35.3 µM; for `CC(O)=C(C#N)C(=S)Nc1ccc(S(=O)(=O)N2CCCCC2)cc1` [Compound 22, 3-hydroxy-3-methyl-2-[[4-(piperidine-1-sulfonyl)-phenyl]aminothiocarbonyl]acrylonitrile] it is 24.3 µM; for `C=C(C)C(O)=C(C#N)C(=S)Nc1ccc(C(F)(F)F)cc1` [Compound 6, 3-hydroxy-3-(propen-2-yl)-2-[[4-(trifluoro-methyl)-phenyl]aminothiocarbonyl]acrylonitrile] it is 31.2 µM.
Still for that read-out and setting: for `CC(O)=C(C#N)C(=S)Nc1ccc(S(N)(=O)=O)cc1` [Compound 27, 3-hydroxy-3-methyl-2-[[4-(aminosulfonyl)phenyl]aminothiocarbonyl]acrylonitrile] the value was more than 20 µM.
On to `Cc1oncc1C(=O)Nc1ccc(C(F)(F)F)cc1` [leflunomide, 5-methylisoxazole-4 carboxylic acid-(4-trifluromethyl)-anilide, reference compound], for which, in data set [7], the “Preventing and curing autoimmune animal diseases” value is “very effective in preventing and curing several autoimmune animal diseases”.
`CC(O)=C(C#N)C(=S)Nc1ccccc1C(F)(F)F` [Compound 12, 3-hydroxy-3-methyl-2-[[2-(trifluoromethyl)-phenyl]aminothiocarbonyl]acrylonitrile] displayed an IC50 in data set [1] (96 h) of more than 100 µM.
With `CC(O)=C(C#N)C(=S)Nc1ccc(C(F)(F)F)cc1` [AA12, 1-Cyano-2-hydroxy-1-(4-trifluoromethylphenyl)aminothiocarbonylpropene], in data set [2], the “Inhibition of tumor growth” value was “inhibit tumor growth”. The solubility in data set [3] (setting [8]) was found to be 400 mg/mL (≈ 1400 mM). For the same molecule, the “Inhibition of hyper-proliferative cell growth (in words)” value in data set [1] is “able to inhibit hyper-proliferative cell growth”. Besides, half-maximal inhibition in data set [1] (96 h) (IC50) required 0.8 µM. This molecule also had an LD10 in data set [4] (setting [9]) of 62 mg/kg. The molecule further showed an LD50 in data set [5] (setting [9]) of 79 mg/kg.

Values taken from US5914343A, “Compounds and methods for inhibiting hyper-proliferative cell growth” (Sugen, Inc., priority 1997, dated 1999).
